US20200215142A1, “PHARMACEUTICAL COMPOSITION CONTAINING AVOCADO OIL FRACTION AS ACTIVE INGREDIENT FOR PREVENTION OR TREATMENT OF HEARING LOSS” (DONG KOOK PHARM CO., LTD, priority 2017, published 2020)

How the values were obtained:
[1] = test system: hair cells of zebrafish reduced by neomycin; experiment: Hair cells of zebrafish larvae reduced by neomycin (ototoxicity), YO-PRO staining and fluorescence microscope count; format: in vivo; conditions: neomycin 1 μM 1 h, then single substance 1 μg/ml 12 h (FIGS. 7, 8)
Experimental: Particularly, 6 days after fertilization, zebrafish […] placed in 24-well plates and neomycin was added thereto at the concentration of 1 μM. One hour later, neomycin was removed and the isopropanol fraction of avocado oil prepared in Example 1 was added at the concentration of 1 μg/ml. At this time, avocado oil was used as the control and 0.03% (w/v) sea salt solution was used as the untreated control. Twelve hours later, 0.1% YO-PRO (Life Technologies, USA) was added to stain hair cells of the […] for 30 minutes. […] Particularly, 6 days after fertilization, zebrafish […] placed in 24-well plates and neomycin was added thereto at the concentration of 1 μM. One hour later, neomycin was removed and A-E were added at the concentration of 10 μg/ml. At this time, 0.03% (w/v) sea salt solution was used as the control. Twelve hours later, 0.1% YO-PRO (Life Technologies, USA) was added to stain hair cells of the […] for 30 minutes. The stained hair cells were observed using a fluorescence microscope (Olympus 1x70, Olympus, Japan), and the number of the observed hair cells was counted and analyzed.

[2] = test system: hair cells of zebrafish reduced by kanamycin; format: in vivo; conditions: kanamycin 1 μM vs neomycin 1 μM, 1 h; comparison of Experimental Examples 6 and 7
Experimental: Particularly, 6 days after fertilization, zebrafish larvaes were placed in 24-well plates and kanamycin was added thereto at the concentration of 1 μM. One hour later, kanamycin was removed and IPG and BG were added at the concentration of 10 μg/ml. At this time, 0.03% (w/v) sea salt solution was used as the control. Twelve hours later, 0.1% YO-PRO (Life Technologies, USA) was added to stain hair cells of the larvaes for 30 minutes. The stained hair cells were observed using a fluorescence microscope (Olympus 1x70, Olympus, Japan), and the number of the observed hair cells was counted and analyzed. As a result, the number of hair cells observed with a fluorescence microscope was shown in FIG. 11 and photomicrographs of the hair cells taken with a fluorescence microscope were shown in FIG. 12.

SMILES | number of hair cells [1] | toxicity to hair cells of zebrafish fry (reduction of the number of hair cells) [2]
CC/C=C\C/C=C\C/C=C\CCCCCCCC(=O)O [alpha-linolenic acid] | significantly increased | –
NC[C@H]1O[C@H](O[C@H]2[C@H](O)[C@@H](O[C@H]3O[C@H](CO)[C@@H](O)[C@H](N)[C@H]3O)[C@H](N)C[C@@H]2N)[C@H](O)[C@@H](O)[C@@H]1O [kanamycin] | – | more toxic than neomycin
CCCCC/C=C\C/C=C\CCCCCCCC(=O)O [linoleic acid] | significantly increased | –
CCCCCCCCCCCCCCCCCC(=O)O [stearic acid] | significantly increased | –
